Results: ChEMBL document CHEMBL5465560, “Selectivity Literature for EUbOPEN Chemogenomic Library” (2024)

Assays:
[1] = biological target: Tyrosine-protein kinase Fer (Homo sapiens) (UniProt P16591); assay: Selectivity interaction (Kinase panel (KiNativ target engagement assay in Jurkat cells)) EUB0001635a FER; format: cell-based; details: Selectivity number of off-targets 0.0, Selectivity number of targets 233.0, Source Knowledge https://www.sciencedirect.com/science/article/pii/S2451945619300674?via%3Dihub, at 1 µM
[2] = biological target: Protein kinase C eta type (Homo sapiens) (UniProt P24723); details: at 10 µM
[3] = biological target: Tyrosine-protein kinase Lyn (Homo sapiens, UniProt P07948); assay: Selectivity interaction (Kinase panel (Z-LYTE Assay)) EUB0001632a LYN; details: at 10 µM
[4] = biological target: Bone morphogenetic protein receptor type-1A (Homo sapiens, UniProt P36894); assay: Selectivity interaction (Kinase panel (Invitrogen)) EUB0000639a BMPR1A; details: at 200 nM
[5] = biological target: T1, Aurora kinase A (Homo sapiens) (UniProt O14965); assay: Selectivity interaction (ActivX KiNativ screen (kinase selectivity in THP-1 cell lysates)) EUB0000639a STK6; format: subcellular; details: lysate, at 1 µM
T1 sequence (whole entry): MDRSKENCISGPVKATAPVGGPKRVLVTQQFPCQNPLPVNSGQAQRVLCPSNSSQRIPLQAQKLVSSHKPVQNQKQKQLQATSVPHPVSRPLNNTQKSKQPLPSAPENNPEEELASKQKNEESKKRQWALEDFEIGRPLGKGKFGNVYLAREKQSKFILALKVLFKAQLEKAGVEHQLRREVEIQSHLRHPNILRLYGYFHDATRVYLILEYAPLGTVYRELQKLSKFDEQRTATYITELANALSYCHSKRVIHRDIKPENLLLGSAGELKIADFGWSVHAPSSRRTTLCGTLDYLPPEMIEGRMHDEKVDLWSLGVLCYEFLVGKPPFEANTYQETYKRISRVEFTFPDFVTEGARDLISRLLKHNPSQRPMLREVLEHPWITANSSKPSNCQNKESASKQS

[6] = biological target: Dual specificity mitogen-activated protein kinase kinase 2 (Homo sapiens) (UniProt P36507); assay: Selectivity interaction (KinomeScan (DiscoverX)) EUB0001049a MAP2K2; details: at 1 µM
[7] = biological target: Casein kinase I isoform epsilon (Homo sapiens, UniProt P49674); details: at 10 µM
[8] = biological target: T2, Megakaryocyte-associated tyrosine-protein kinase (Homo sapiens) (UniProt P42679); assay: Selectivity interaction (KinomeScan (DiscoverX)) EUB0000618a MATK; details: at 10 µM
T2 sequence (whole entry): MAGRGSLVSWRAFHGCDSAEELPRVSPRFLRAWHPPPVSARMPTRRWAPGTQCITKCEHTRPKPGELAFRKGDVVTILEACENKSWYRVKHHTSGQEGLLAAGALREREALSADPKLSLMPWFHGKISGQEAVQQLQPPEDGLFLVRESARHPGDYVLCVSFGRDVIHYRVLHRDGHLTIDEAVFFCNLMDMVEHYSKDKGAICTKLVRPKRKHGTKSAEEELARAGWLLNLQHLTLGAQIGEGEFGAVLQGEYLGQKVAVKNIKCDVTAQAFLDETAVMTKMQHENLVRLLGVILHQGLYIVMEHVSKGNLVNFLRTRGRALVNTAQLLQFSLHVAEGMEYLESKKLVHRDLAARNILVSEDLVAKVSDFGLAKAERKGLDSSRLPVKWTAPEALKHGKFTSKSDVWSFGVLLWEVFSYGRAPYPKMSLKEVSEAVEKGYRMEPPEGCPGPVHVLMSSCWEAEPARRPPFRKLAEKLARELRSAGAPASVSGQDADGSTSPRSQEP

[9] = biological target: T3, Serine/threonine-protein kinase D2 (Homo sapiens) (UniProt Q9BZL6); assay: Selectivity interaction (ActivX KiNativ screen (ex vivo kinase selectivity in human PBMCs)) EUB0001619a PRKD2; format: cell-based; details: PBMC, at 1 µM
T3 sequence (whole entry): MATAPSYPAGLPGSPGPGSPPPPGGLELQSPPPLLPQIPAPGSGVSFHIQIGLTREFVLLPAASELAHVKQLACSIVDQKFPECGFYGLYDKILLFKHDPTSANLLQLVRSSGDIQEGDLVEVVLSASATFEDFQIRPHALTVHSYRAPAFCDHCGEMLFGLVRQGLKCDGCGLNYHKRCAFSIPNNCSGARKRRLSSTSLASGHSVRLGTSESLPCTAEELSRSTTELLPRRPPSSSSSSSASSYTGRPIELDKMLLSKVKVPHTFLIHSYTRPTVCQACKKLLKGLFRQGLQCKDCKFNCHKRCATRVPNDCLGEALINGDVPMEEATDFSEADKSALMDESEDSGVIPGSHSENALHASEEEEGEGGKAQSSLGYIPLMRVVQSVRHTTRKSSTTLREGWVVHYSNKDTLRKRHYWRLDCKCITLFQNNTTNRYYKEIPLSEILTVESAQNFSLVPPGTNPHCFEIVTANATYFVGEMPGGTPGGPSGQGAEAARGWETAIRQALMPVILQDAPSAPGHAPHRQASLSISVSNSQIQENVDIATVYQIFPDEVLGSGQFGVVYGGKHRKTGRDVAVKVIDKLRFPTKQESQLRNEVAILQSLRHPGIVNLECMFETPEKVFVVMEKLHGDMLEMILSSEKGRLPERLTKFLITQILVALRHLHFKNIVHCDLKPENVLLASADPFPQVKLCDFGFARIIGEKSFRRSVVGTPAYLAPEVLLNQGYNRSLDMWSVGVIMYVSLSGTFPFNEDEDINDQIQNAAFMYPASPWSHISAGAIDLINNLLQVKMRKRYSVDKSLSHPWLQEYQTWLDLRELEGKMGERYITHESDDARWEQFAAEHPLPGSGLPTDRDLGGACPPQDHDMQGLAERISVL

Sequence of Bone morphogenetic protein receptor type-1A (P36894 whole entry): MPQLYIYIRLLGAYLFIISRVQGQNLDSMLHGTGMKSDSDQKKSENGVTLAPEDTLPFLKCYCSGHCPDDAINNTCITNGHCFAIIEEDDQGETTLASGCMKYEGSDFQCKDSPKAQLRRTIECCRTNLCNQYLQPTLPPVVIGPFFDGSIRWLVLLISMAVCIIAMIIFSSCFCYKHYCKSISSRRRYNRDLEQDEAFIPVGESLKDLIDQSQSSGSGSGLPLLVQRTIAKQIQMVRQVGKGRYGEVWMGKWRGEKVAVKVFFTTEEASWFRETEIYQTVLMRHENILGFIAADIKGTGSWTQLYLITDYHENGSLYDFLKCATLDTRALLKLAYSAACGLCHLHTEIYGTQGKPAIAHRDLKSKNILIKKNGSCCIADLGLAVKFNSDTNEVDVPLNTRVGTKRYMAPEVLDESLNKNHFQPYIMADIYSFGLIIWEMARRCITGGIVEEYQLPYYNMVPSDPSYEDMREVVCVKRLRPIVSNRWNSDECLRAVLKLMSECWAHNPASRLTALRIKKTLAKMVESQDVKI
Sequence of Tyrosine-protein kinase Fer (Homo sapiens) (P16591 whole entry, looked up): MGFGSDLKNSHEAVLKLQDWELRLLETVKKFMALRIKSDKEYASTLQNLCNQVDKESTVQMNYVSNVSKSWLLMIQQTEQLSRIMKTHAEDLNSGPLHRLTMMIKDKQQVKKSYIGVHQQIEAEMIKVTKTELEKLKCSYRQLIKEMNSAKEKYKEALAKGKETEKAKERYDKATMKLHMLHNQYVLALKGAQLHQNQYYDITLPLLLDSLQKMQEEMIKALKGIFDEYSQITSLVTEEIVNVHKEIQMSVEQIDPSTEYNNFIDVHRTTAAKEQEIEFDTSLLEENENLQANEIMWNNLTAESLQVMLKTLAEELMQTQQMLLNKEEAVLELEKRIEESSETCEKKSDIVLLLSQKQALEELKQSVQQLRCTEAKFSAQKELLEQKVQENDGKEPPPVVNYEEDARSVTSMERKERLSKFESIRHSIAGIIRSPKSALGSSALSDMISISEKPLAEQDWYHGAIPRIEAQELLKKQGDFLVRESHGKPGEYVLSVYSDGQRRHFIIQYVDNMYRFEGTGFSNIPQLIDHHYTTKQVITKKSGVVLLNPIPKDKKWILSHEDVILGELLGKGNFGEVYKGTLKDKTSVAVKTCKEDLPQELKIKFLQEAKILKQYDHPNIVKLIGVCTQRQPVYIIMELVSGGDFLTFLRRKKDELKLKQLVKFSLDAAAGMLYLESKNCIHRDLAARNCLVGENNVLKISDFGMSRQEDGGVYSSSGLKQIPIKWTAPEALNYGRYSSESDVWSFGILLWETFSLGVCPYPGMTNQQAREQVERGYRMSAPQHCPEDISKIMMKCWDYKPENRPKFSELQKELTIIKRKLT
Sequence of Dual specificity mitogen-activated protein kinase kinase 2 (Homo sapiens) (P36507 whole entry, canonical isoform): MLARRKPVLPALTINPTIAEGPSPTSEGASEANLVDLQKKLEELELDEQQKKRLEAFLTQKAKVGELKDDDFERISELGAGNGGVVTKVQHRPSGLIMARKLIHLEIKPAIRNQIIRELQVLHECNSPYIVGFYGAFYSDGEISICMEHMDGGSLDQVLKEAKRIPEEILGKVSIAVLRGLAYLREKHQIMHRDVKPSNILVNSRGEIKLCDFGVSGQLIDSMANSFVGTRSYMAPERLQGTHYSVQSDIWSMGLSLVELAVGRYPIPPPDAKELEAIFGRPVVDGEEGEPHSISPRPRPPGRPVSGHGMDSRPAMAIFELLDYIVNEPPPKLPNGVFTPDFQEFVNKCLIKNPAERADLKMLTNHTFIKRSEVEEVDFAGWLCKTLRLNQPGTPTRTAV
Sequence of Protein kinase C eta type (Homo sapiens) (P24723 whole entry): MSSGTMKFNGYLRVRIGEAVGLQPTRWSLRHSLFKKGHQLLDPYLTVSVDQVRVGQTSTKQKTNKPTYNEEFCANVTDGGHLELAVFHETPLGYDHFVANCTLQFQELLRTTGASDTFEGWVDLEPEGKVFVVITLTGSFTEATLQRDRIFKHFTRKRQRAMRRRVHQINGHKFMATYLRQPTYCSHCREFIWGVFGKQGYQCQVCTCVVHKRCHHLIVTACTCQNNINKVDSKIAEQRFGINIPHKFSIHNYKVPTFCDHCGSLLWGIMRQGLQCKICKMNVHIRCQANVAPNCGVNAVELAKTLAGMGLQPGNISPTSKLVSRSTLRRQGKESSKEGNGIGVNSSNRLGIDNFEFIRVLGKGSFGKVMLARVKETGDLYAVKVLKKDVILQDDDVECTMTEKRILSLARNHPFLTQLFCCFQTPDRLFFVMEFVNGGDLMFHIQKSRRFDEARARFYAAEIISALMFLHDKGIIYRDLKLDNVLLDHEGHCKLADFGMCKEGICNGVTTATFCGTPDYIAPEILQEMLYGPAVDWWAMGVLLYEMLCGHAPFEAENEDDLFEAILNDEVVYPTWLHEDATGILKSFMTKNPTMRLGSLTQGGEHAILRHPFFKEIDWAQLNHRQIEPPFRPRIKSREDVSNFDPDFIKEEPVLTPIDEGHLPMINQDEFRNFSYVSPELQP
Sequence of Tyrosine-protein kinase Lyn (P07948 2-512 limits assumed): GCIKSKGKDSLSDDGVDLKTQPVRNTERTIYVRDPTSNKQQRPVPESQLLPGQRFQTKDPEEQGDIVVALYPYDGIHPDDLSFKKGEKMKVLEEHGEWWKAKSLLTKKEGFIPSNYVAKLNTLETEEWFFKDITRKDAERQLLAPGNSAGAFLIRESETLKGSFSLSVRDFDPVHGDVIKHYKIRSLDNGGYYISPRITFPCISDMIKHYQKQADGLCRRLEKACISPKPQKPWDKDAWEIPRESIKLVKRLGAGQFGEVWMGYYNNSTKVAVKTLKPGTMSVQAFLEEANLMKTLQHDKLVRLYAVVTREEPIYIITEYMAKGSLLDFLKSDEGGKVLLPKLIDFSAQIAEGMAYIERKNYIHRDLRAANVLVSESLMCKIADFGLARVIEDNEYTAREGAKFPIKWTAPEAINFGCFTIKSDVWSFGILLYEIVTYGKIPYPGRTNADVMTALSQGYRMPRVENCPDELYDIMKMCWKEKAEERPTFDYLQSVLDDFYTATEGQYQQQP
Sequence of Casein kinase I isoform epsilon (P49674 whole entry, looked up, canonical isoform): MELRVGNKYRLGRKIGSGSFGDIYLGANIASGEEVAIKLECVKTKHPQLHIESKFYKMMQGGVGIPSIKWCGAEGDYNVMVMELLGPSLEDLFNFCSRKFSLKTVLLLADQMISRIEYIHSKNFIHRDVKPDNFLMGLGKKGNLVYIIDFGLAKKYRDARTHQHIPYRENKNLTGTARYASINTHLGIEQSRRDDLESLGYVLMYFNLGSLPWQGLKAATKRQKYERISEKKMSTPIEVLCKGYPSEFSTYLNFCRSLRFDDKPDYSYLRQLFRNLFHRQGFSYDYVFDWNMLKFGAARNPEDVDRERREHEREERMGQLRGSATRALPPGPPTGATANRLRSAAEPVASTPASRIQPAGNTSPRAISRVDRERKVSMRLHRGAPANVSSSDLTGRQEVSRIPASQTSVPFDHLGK

C=CC(=O)Nc1ccc(C(=O)Nc2[nH]nc3c2CN(C(=O)N[C@H](CN(C)C)c2ccccc2)C3(C)C)cc1
% of engagement [1]: -2.6%

Cc1cc([C@@H](C)Nc2ccccc2C(=O)O)c2nc(N3CCOCC3)cc(=O)n2c1 [AZD-6482]
% of control [2]: 82%

Cn1cc(-n2cnc3c(NCc4nc5cc(Cl)c(Cl)cc5[nH]4)nc(N4CCOCC4)nc32)cn1
% of control [3]: 8.19%

CC[C@@H]1[C@H](F)C(=O)N[C@@H]1COc1nccc2cc(C(N)=O)c(OC)cc12 [ZIMLOVISERTIB]
% of inhibition [4]: 20.8% | % of inhibition [5]: 17.4%

COc1cc(Nc2nc(C)cc(-c3cnn4nc(OC)ccc34)n2)cc(C(F)(F)F)c1
% of control [6]: 77%

COCC(=O)NC/C=C/c1ccc2ncnc(Nc3ccc(Oc4ccc(C)nc4)c(C)c3)c2c1 [CP-724714]
% of control [7]: 100%

O[C@H]1CC[C@H](Nc2ncc3nc(Nc4c(F)cc(F)cc4F)n([C@H]4CCOC4)c3n2)CC1
% of control [8]: 95%

N#Cc1cccc(-c2c[nH]c3ncnc(N4CCOCC4)c23)c1
% of inhibition [9]: -2%
